{
  "source": "ChEMBL document CHEMBL1201862",
  "about": "“PubChem BioAssay data set” (2004)",
  "test_in_all_cases": "growth of human tumour cells (NCI), 48 h",
  "key": {"[1]": {"test_system": "KM12"}, "[2]": {"test_system": "K562"}, "[3]": {"test_system": "KM-20L2"}, "[4]": {"test_system": "SF-539"}, "[5]": {"test_system": "OVCAR-5"}, "[6]": {"test_system": "RXF 631"}, "[7]": {"test_system": "SK-MEL-28"}, "[8]": {"test_system": "U-251"}, "[9]": {"test_system": "NCI-H23"}, "[10]": {"test_system": "ACHN"}, "[11]": {"test_system": "LXFL 529"}, "[12]": {"test_system": "COLO 205"}, "[13]": {"test_system": "SW-620"}, "[14]": {"test_system": "HCC 2998"}, "[15]": {"test_system": "HCT-116"}, "[16]": {"test_system": "UACC-257"}, "[17]": {"test_system": "SF-295"}, "[18]": {"test_system": "SNB-78"}, "[19]": {"test_system": "MOLT-4"}, "[20]": {"test_system": "CCRF-CEM"}, "[21]": {"test_system": "M14"}, "[22]": {"test_system": "TK-10"}, "[23]": {"test_system": "HOP-92"}, "[24]": {"test_system": "LOX IMVI"}, "[25]": {"test_system": "SR"}, "[26]": {"test_system": "IGROV-1"}, "[27]": {"test_system": "SF-268"}, "[28]": {"test_system": "SNB-19"}, "[29]": {"test_system": "HCT-15"}, "[30]": {"test_system": "CAKI-1"}, "[31]": {"test_system": "RPMI-8226"}, "[32]": {"test_system": "OVCAR-4"}, "[33]": {"test_system": "A549"}, "[34]": {"test_system": "A498"}, "[35]": {"test_system": "UACC-62"}, "[36]": {"test_system": "NCI-H522"}, "[37]": {"test_system": "786-0"}, "[38]": {"test_system": "DLD-1"}, "[39]": {"test_system": "DMS-114"}, "[40]": {"test_system": "SN12C"}, "[41]": {"test_system": "OVCAR-8"}, "[42]": {"test_system": "SK-OV-3"}, "[43]": {"test_system": "SK-MEL-5"}, "[44]": {"test_system": "HOP-62"}, "[45]": {"test_system": "SNB-75"}, "[46]": {"test_system": "OVCAR-3"}, "[47]": {"test_system": "UO-31"}, "[48]": {"test_system": "HOP-18"}, "[49]": {"test_system": "HL-60"}, "[50]": {"test_system": "NCI-H460"}, "[51]": {"test_system": "Malme-3M"}, "[52]": {"test_system": "HT-29"}, "[53]": {"test_system": "EKVX"}, "[54]": {"test_system": "RXF 393"}, "[55]": {"test_system": "SK-MEL-2"}, "[56]": {"test_system": "M19-MEL"}, "[57]": {"test_system": "NCI-H226"}},
  "note": "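Grown in 96-well plates, cells were treated for 48 hours with each compound at five concentrations. Insufficient inhibition: endpoint recorded as highest concentration tested. GI50: concentration for 50% inhibition of growth.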 The source made the active and inactive calls. Rule as the data show it: active = GI50 up to about 1.1 µM and inactive = higher.",
  "data": [
    {"smiles": "COc1ccc2c(c1)c(=O)c1c(NCCN(C)C)ccc3nnn2c31", "values": [
      {"measurement": "GI50", "setting": "[1]", "result": "1110 nM (active)"},
      {"measurement": "GI50", "setting": "[2]", "result": "1600 nM (inactive)"},
      {"measurement": "GI50", "setting": "[3]", "result": "1150 nM (inactive)"},
      {"measurement": "GI50", "setting": "[4]", "result": "4040 nM (inactive)"},
      {"measurement": "GI50", "setting": "[5]", "result": "4060 nM (inactive)"},
      {"measurement": "GI50", "setting": "[6]", "result": "2210 nM (inactive)"},
      {"measurement": "GI50", "setting": "[7]", "result": "5780 nM (inactive)"},
      {"measurement": "GI50", "setting": "[8]", "result": "3080 nM (inactive)"},
      {"measurement": "GI50", "setting": "[9]", "result": "2680 nM (inactive)"},
      {"measurement": "GI50", "setting": "[10]", "result": "2400 nM (inactive)"},
      {"measurement": "GI50", "setting": "[11]", "result": "2910 nM (inactive)"},
      {"measurement": "GI50", "setting": "[12]", "result": "1360 nM (inactive)"},
      {"measurement": "GI50", "setting": "[13]", "result": "700 nM (active)"},
      {"measurement": "GI50", "setting": "[14]", "result": "2760 nM (inactive)"},
      {"measurement": "GI50", "setting": "[15]", "result": "655 nM (active)"},
      {"measurement": "GI50", "setting": "[16]", "result": "4690 nM (inactive)"},
      {"measurement": "GI50", "setting": "[17]", "result": "2110 nM (inactive)"},
      {"measurement": "GI50", "setting": "[18]", "result": "4350 nM (inactive)"},
      {"measurement": "GI50", "setting": "[19]", "result": "321 nM (active)"},
      {"measurement": "GI50", "setting": "[20]", "result": "918 nM (active)"},
      {"measurement": "GI50", "setting": "[21]", "result": "3990 nM (inactive)"},
      {"measurement": "GI50", "setting": "[22]", "result": "2500 nM (inactive)"},
      {"measurement": "GI50", "setting": "[23]", "result": "2190 nM (inactive)"},
      {"measurement": "GI50", "setting": "[24]", "result": "1330 nM (inactive)"},
      {"measurement": "GI50", "setting": "[25]", "result": "493 nM (active)"},
      {"measurement": "GI50", "setting": "[26]", "result": "3330 nM (inactive)"},
      {"measurement": "GI50", "setting": "[27]", "result": "2130 nM (inactive)"},
      {"measurement": "GI50", "setting": "[28]", "result": "3520 nM (inactive)"},
      {"measurement": "GI50", "setting": "[29]", "result": 3820, "unit": "nM"},
      {"measurement": "GI50", "setting": "[30]", "result": "3010 nM (inactive)"},
      {"measurement": "GI50", "setting": "[31]", "result": "1650 nM (inactive)"},
      {"measurement": "GI50", "setting": "[32]", "result": "1970 nM (inactive)"},
      {"measurement": "GI50", "setting": "[33]", "result": "2210 nM (inactive)"},
      {"measurement": "GI50", "setting": "[34]", "result": "9510 nM (inactive)"},
      {"measurement": "GI50", "setting": "[35]", "result": "4710 nM (inactive)"},
      {"measurement": "GI50", "setting": "[36]", "result": "2700 nM (inactive)"},
      {"measurement": "GI50", "setting": "[37]", "result": "1710 nM (inactive)"},
      {"measurement": "GI50", "setting": "[38]", "result": "1710 nM (inactive)"},
      {"measurement": "GI50", "setting": "[39]", "result": "3640 nM (inactive)"},
      {"measurement": "GI50", "setting": "[40]", "result": "2490 nM (inactive)"},
      {"measurement": "GI50", "setting": "[41]", "result": "1040 nM (active)"},
      {"measurement": "GI50", "setting": "[42]", "result": "4010 nM (inactive)"},
      {"measurement": "GI50", "setting": "[43]", "result": "3170 nM (inactive)"},
      {"measurement": "GI50", "setting": "[44]", "result": "2820 nM (inactive)"},
      {"measurement": "GI50", "setting": "[45]", "result": "7100 nM (inactive)"},
      {"measurement": "GI50", "setting": "[46]", "result": "4240 nM (inactive)"},
      {"measurement": "GI50", "setting": "[47]", "result": "2170 nM (inactive)"},
      {"measurement": "GI50", "setting": "[48]", "result": "504 nM (active)"},
      {"measurement": "GI50", "setting": "[49]", "result": "1820 nM (inactive)"},
      {"measurement": "GI50", "setting": "[50]", "result": "1610 nM (inactive)"},
      {"measurement": "GI50", "setting": "[51]", "result": "3940 nM (inactive)"},
      {"measurement": "GI50", "setting": "[52]", "result": "1570 nM (inactive)"},
      {"measurement": "GI50", "setting": "[53]", "result": "2050 nM (inactive)"},
      {"measurement": "GI50", "setting": "[54]", "result": "27.2 nM (active)"},
      {"measurement": "GI50", "setting": "[55]", "result": "6310 nM (inactive)"},
      {"measurement": "GI50", "setting": "[56]", "result": "6610 nM (inactive)"},
      {"measurement": "GI50", "setting": "[57]", "result": "2460 nM (inactive)"}
    ]}
  ]
}
